What all share (type): cell-based
A short description of experiment [1]: Displacement of 2-[125I]-iodomelatonin from human MT1 receptor expressed in CHO cells by Gamma counting.
The nature of experiment [2]: Displacement of 2-[125I]-iodomelatonin from human MT2 receptor expressed in CHO cells by Gamma counting.
In experiment [3] the test system is HEK-293T. In words: Binding affinity to Rluc-tagged MT1/YFP-tagged MT2 (unknown origin) transfected in HEK293T cells assessed as bioluminescence resonance energy transfer ratio at 10 uM after 10 mins by lumino/fluorometer (reference value: 0.254 +/- 0.035). The settings on record: Homo sapiens.
In experiment [4] the test system is HEK-293T. In words: Binding affinity to Rluc-tagged MT2/YFP-tagged MT2 (unknown origin) transfected in HEK293T cells assessed as bioluminescence resonance energy transfer ratio at 10 uM after 10 mins by lumino/fluorometer (reference value: 1.468 +/- 0.560). The conditions noted are these: Homo sapiens.
Experiment [5] deals with HEK-293T. In words: Binding affinity to Rluc-tagged MT2/YFP-tagged MT1 (unknown origin) transfected in HEK293T cells assessed as bioluminescence resonance energy transfer ratio at 10 uM after 10 mins by lumino/fluorometer (reference value: 2.300 +/- 0.777). The conditions noted are these: Homo sapiens.
Experiment [6] concerns HEK-293T. In words: Binding affinity to Rluc-tagged MT1/YFP-tagged MT1 (unknown origin) transfected in HEK293T cells assessed as bioluminescence resonance energy transfer ratio at 10 uM after 10 mins by lumino/fluorometer (reference value: 0.092 +/- 0.007). The conditions noted are these: Homo sapiens.

The source of these data is ChEMBL document CHEMBL3580540, “N1-linked melatonin dimers as bivalent ligands targeting dimeric melatonin receptors” (Medchemcomm, 2014).

Broadly, the pKi is the negative decadic logarithm of the Ki, by convention in mol/L.

Consider `COc1ccc2c(c1)c(CCNC(C)=O)cn2CCCCC(=O)NCCCCCCNC(=O)CCCCn1cc(CCNC(C)=O)c2cc(OC)ccc21`, for which the pKi in experiment [1] was determined as 5.64; in experiment [2], 5.9.
In the case of `COc1ccc2c(c1)c(CCNC(C)=O)cn2CCCCC(=O)NCCCCCCCCCNC(=O)CCCCn1cc(CCNC(C)=O)c2cc(OC)ccc21`, the pKi in experiment [1] was determined as 6.23; in experiment [2], 6.79.
`COc1ccc2c(c1)c(CCNC(C)=O)cn2CCCCC(=O)NCCCCCCCCCCNC(=O)CCCCn1cc(CCNC(C)=O)c2cc(OC)ccc21`: the results for the pKi in experiment [1] and in experiment [2] were 6.33 and 6.62, respectively. In addition, the Ratio amounted to 0.223 in experiment [3], 1.39 in experiment [4], 9.28 in experiment [5] and 0.098 in experiment [6].
As to `COc1ccc2c(c1)c(CCNC(C)=O)cn2CC(=O)NCCCCCCCCCCCCNC(=O)Cn1cc(CCNC(C)=O)c2cc(OC)ccc21`, the pKi worked out at 6.47 in experiment [1] and 7.02 in experiment [2].
In the case of `CCCCCCNC(=O)CCCCn1cc(CCNC(C)=O)c2cc(OC)ccc21`, the pKi in experiment [1] was 5.79; in experiment [2], 6.41.
`COc1ccc2c(c1)c(CCNC(C)=O)cn2CC(=O)NCCCCCCCCCCNC(=O)Cn1cc(CCNC(C)=O)c2cc(OC)ccc21`: the pKi in experiment [1] was 6.37; in experiment [2], 7.34.
Regarding `COc1ccc2c(c1)c(CCNC(C)=O)cn2CCCCC(=O)NCCCCCCCCCCCCNC(=O)CCCCn1cc(CCNC(C)=O)c2cc(OC)ccc21`, the pKi in experiment [1] was 6.08; in experiment [2], 6.67. Also, the Ratio in experiment [3] worked out at 0.2; in experiment [4] it was 1.15; in experiment [5], 6.81; in experiment [6], 0.062.
`COc1ccc2c(c1)c(CCNC(C)=O)cn2CCCCC(=O)NCCCCCCCCCCCNC(=O)CCCCn1cc(CCNC(C)=O)c2cc(OC)ccc21`: the pKi is given as 6.11 in experiment [1] and 6.54 in experiment [2]. The Ratio was 0.217 in experiment [3], 0.901 in experiment [4], 10.1 in experiment [5] and 0.078 in experiment [6].
As to `COc1ccc2c(c1)c(CCNC(C)=O)cn2CC(=O)NCCCCCCCCCNC(=O)Cn1cc(CCNC(C)=O)c2cc(OC)ccc21`, the pKi in experiment [1] amounted to 4.83; in experiment [2], 4.93.
Regarding `COc1ccc2c(c1)c(CCNC(C)=O)cn2CCCCC(=O)NCCCCCCCCNC(=O)CCCCn1cc(CCNC(C)=O)c2cc(OC)ccc21`, the pKi in experiment [1] is 6.17; in experiment [2], 6.74.
In the same order, the values of `COc1ccc2c(c1)c(CCNC(C)=O)cn2CCCCC(=O)NCCCCCCCNC(=O)CCCCn1cc(CCNC(C)=O)c2cc(OC)ccc21` are 6.24 and 5.93.
Regarding `COc1ccc2c(c1)c(CCNC(C)=O)cn2CC(=O)NCCCCCCCCCCCNC(=O)Cn1cc(CCNC(C)=O)c2cc(OC)ccc21`, the pKi in experiment [1] is given as 5.12; in experiment [2], 6.53.
